Results published in publication PMC6440985, “Heterogeneous drug tissue binding in brain regions of rats, Alzheimer’s patients and controls: impact on translational drug development” (Scientific Reports, 2019).
Like-named read-outs stand apart in the source and are kept apart here.

Experiments:
[1] = Regional brain tissue binding by equilibrium dialysis, human post-mortem brain homogenate (control and AD donors); type: in vitro ADME; conditions: for fu,brain,ROI in CRB of AD patients compared to rat CRB: AD patients versus healthy Sprague-Dawley rats; for fraction unbound at 6 h, 1 µM: human, post-mortem brain tissue homogenate
[2] = rat, brain homogenate
[3] = on average; according to prior information; cited from earlier work
in vitro = conditions: Sprague-Dawley, rat, brain homogenate
[4] = design: method as in Loryan et al.[23]; conditions: Rat, ref Loryan et al.[23], cited from earlier work; for fu,brain,ROI Mean: biological replicates; for fu,brain,ROI Median: technical replicates
[5] = AD donors, BG, pH 7.4, AD donors, BG, biological replicates, 1 µM, 6 h, 37 °C, read-out: fu,brain,ROI Mean
[6] = AD donors, BG, pH 7.4, AD donors, BG, technical replicates, 1 µM, 6 h, 37 °C, read-out: fu,brain,ROI Median
[7] = AD donors, CRB, pH 7.4, AD donors, CRB, biological replicates, 1 µM, 6 h, 37 °C, read-out: fu,brain,ROI Mean
[8] = AD donors, CRB, pH 7.4, AD donors, CRB, technical replicates, 1 µM, 6 h, 37 °C, read-out: fu,brain,ROI Median
[9] = AD donors, FrCx, pH 7.4, AD donors, FrCx, biological replicates, 1 µM, 6 h, 37 °C, read-out: fu,brain,ROI Mean
[10] = AD donors, FrCx, pH 7.4, AD donors, FrCx, technical replicates, 1 µM, 6 h, 37 °C, read-out: fu,brain,ROI Median
[11] = AD donors, PrCx, pH 7.4, AD donors, PrCx, technical replicates, 1 µM, 6 h, 37 °C, read-out: fu,brain,ROI Median
[12] = control donors, BG, pH 7.4, Control donors, BG, biological replicates, 1 µM, 6 h, 37 °C, read-out: fu,brain,ROI Mean
[13] = control donors, BG, pH 7.4, Control donors, BG, technical replicates, 1 µM, 6 h, 37 °C, read-out: fu,brain,ROI Median
[14] = control donors, CRB, pH 7.4, Control donors, CRB, biological replicates, 1 µM, 6 h, 37 °C, read-out: fu,brain,ROI Mean
[15] = control donors, CRB, pH 7.4, Control donors, CRB, technical replicates, 1 µM, 6 h, 37 °C, read-out: fu,brain,ROI Median
[16] = control donors, FrCx, pH 7.4, Control donors, FrCx, biological replicates, 1 µM, 6 h, 37 °C, read-out: fu,brain,ROI Mean
[17] = control donors, FrCx, pH 7.4, Control donors, FrCx, technical replicates, 1 µM, 6 h, 37 °C, read-out: fu,brain,ROI Median
[18] = control donors, PrCx, pH 7.4, Control donors, PrCx, biological replicates, 1 µM, 6 h, 37 °C, read-out: fu,brain,ROI Mean
[19] = control donors, PrCx, pH 7.4, Control donors, PrCx, technical replicates, 1 µM, 6 h, 37 °C, read-out: fu,brain,ROI Median
[20] = AD group, within-group comparison
[21] = AD donors, PrCx, pH 7.4, AD donors, PrCx, biological replicates, 1 µM, 6 h, 37 °C, read-out: fu,brain,ROI Mean

| SMILES | fu,brain,ROI in CRB of AD patients compared to rat CRB [1] | fraction unbound at 6 h, 1 µM [1, 5] | fraction unbound at 6 h, 1 µM [1, 6] | fraction unbound at 6 h, 1 µM [1, 7] | fraction unbound at 6 h, 1 µM [1, 8] | fraction unbound at 6 h, 1 µM [1, 9] | fraction unbound at 6 h, 1 µM [1, 10] | fraction unbound at 6 h, 1 µM [1, 11] | fraction unbound at 6 h, 1 µM [1, 12] | fraction unbound at 6 h, 1 µM [1, 13] | fraction unbound at 6 h, 1 µM [1, 14] | fraction unbound at 6 h, 1 µM [1, 15] | fraction unbound at 6 h, 1 µM [1, 16] | fraction unbound at 6 h, 1 µM [1, 17] | fraction unbound at 6 h, 1 µM [1, 18] | fraction unbound at 6 h, 1 µM [1, 19] | between region comparison of fu,brain,ROI [2] | fraction unbound at 6 h, 1 µM (in vitro; pH 7.4, fu,brain,ROI Mean) | fraction unbound at 6 h, 1 µM (in vitro; pH 7.4, fu,brain,ROI Median) | ratio of fu,brain,ROI in CRB compared to PrCx [1, 20] | other results |
| --- | --- | --- | --- | --- | --- | --- | --- | --- | --- | --- | --- | --- | --- | --- | --- | --- | --- | --- | --- | --- | --- |
| COc1ccc2c(c1)c(CC(=O)O)c(C)n2C(=O)c1ccc(Cl)cc1 [Indomethacin, indomethacin] | twice as high | 0.089 | 0.089 | 0.149 | 0.116 | 0.103 | 0.095 | 0.08 | 0.073 | 0.071 | 0.113 | 0.109 | 0.088 | 0.088 | 0.079 | 0.083 | no differences in binding | 0.068 | 0.065 | – | plasma protein binding exceeding brain tissue binding [3]: 5 fold |
| CC12CC3CC(C)(C1)CC(N)(C3)C2 [Memantine, memantine] | twice as high | 0.114 | 0.111 | 0.152 | 0.142 | 0.114 | 0.117 | 0.103 | 0.092 | 0.093 | 0.113 | 0.116 | 0.094 | 0.092 | 0.088 | 0.086 | no differences in binding | 0.076 | 0.073 | ≥ 1.5 | fold higher fu,brain,ROI in CRB compared to PrCx ([1]; control group, within-group comparison): ≥ 1.3 fold; fraction unbound at 6 h, 1 µM [1, 21]: 0.099 |
| Cc1nc2n(c(=O)c1CCN1CCC(c3noc4cc(F)ccc34)CC1)CCCC2O (stereo not drawn) [Paliperidone, paliperidone] | twice as high | 0.249 | 0.249 | 0.374 | – | 0.237 | 0.216 | 0.224 | 0.186 | 0.192 | 0.217 | 0.207 | 0.197 | 0.198 | 0.189 | 0.183 | no differences in binding | – | – | ≥ 1.5 | fu,brain,ROI Median ([1]; AD donors, CRB, technical replicates, 1 µM, 6 h, 37 °C): 0.350; ratio of fu,brain,ROI in CRB compared to BG [1, 20]: 1.4; fold lower BTB in CRB compared to frontal and parietal cortices ([1]; AD patients, average): 1.5 fold; ratio of fu,brain,ROI AD versus control ([1]; CRB, between group comparison): 1.6; regional within-group comparison of fu,brain,ROI ([1]; control group, FrCx, PrCx, BG, CRB): uniform binding; fraction unbound at 6 h, 1 µM [1, 21]: 0.232; fu,brain,ROI Mean ([4]; BG): 0.128; fu,brain,ROI Median ([4]; BG): 0.128; fu,brain,ROI Mean ([4]; CRB): 0.145; fu,brain,ROI Median ([4]; CRB): 0.143; fu,brain,ROI Mean ([4]; FrCx): 0.144; fu,brain,ROI Median ([4]; FrCx): 0.138; fu,brain,ROI Mean ([4]; HIP): 0.157; fu,brain,ROI Median ([4]; HIP): 0.150; fu,brain,ROI Mean ([4]; WB): 0.141; fu,brain,ROI Median ([4]; WB): 0.151 |
